# Read-outs that look alike come from different tables or passages of the source.
# What was measured:
# [1] = tested on: Staphylococcus aureus ATCC25923; test: Bacterial growth inhibition (MIC) test, microtiter plate, CLSI protocol; format: cell-based
# [2] = tested on: Fusarium graminearum B4-5A; test: microbe, parasite or virus in culture; format: cell-based
# [3] = tested on: Escherichia coli ATCC 25922; test: Bacterial growth inhibition (MIC) test, microtiter plate, CLSI protocol; format: cell-based; conditions: E. coli 25922, Luria-Bertani medium, 37° C., 24 hours
# [4] = tested on: Candida albicans ATCC64124 (azole-resistant); test: microbe, parasite or virus in culture; format: cell-based; conditions: for MIC: ATCC64124, 48 h
# [5] = tested on: Candida albicans ATCC MYA-2876 (azole sensitive); test: Fungal MIC and MFC, microbroth dilution assay (M27-A3); format: cell-based; conditions: C. albicans MYA2876 (azole sensitive); for MIC: RPMI 1640, 35° C., 48 hours
# [6] = tested on: azole-resistant Candida albicans ATCC 64124; test: Antifungal synergism by checkerboard analysis, K-compound and azole combinations; format: cell-based; conditions: for MIC: Candida albicans; for MIC / MIC alone: compound alone; for MIC alone: K408 checkerboard table; for MIC K408 with azole: MIC of K408 when combined with the labelled azole; for MIC with K408: MIC of the labelled azole when combined with K408; for MIC with K4608: MIC of the labelled azole when combined with K4608; for FIC Index (K408 with azole): combination of K408 with the labelled azole; for FIC Index (K408 with azole) / FIC Index (K4608 with azole): synergistic if ≦0.5, indifferent if >0.5-4, antagonistic if >4; for FIC Index (K4608 with azole): combination of K4608 with the labelled azole
# HeLa cells = test: Cell viability assay (MTT), cytotoxicity test; format: cell-based, human; conditions: for toxicity to human cervical cancer cell line HeLa: 1.0 to 1000 μg/mL; for toxicity to human cervical cancer cell line HeLa / Viable Cells Percentage Compared to Control: 48 h; for Viable Cells Percentage Compared to Control: MTT
# Description: HeLa cells were grown in commercial DMEM 1× (Gibco) with 10% fetal bovine serum (FBS, Gibco), 100 U/mL penicillin, and 100 μg/mL streptomycin at 37° C. and 5% CO2. The cells were allowed to adhere for 24 h before drug treatment.
# The cells were seeded in 96-well microtiter plates (10,000/200 μL). After 24 h of incubation in the media, cells were treated with various concentrations of K608, K4608 and K408 (0.0, 1.0, 10.0, 100.0, 1000 μg/mL and Trition 1×) for 48 h. 20 μL of MTT stock solution (5 mg/mL) was added to each well and incubated for 4 h at 37° C. Upon completion of incubation, the media was carefully removed and washed twice with […] of pbs buffer. Then, 200 μL of DMSO was added to each well; agitated on orbital shaker for 15 min., and the absorbance at 570 nm with 670 nm filter was determined with a microplate reader (Synergy H4). The results are expressed as viability compared with that of control. The experiment was carried out in triplicate in three independent experiments.
# [7] = S. aureus 25923, 37° C., 24 hours
# [8] = F. graminearum B4-5A, RPMI 1640, 35° C., 48 hour
# [9] = Staphylococcus aureus, ATCC25923, S. aureus 25923, 37° C., 24 hours, read-out: MIC
# [10] = Fusarium graminearum, B45A, 48 h
# [11] = ATCC64124, K408 checkerboard table, first of two separate experiments
# [12] = ATCC64124, K408 checkerboard table, second of two separate experiments
# [13] = first of two separate experiments
# [14] = second of two separate experiments
# [15] = ATCC64124, K4608 checkerboard table
smiles,measurement,setting,value
CCCCOC1C(CO)OC(OC2C(N)CC(N)C(OC3OC(CN)C(O)C(O)C3O)C2O)C(O)C1N (stereo not shown) [Compound K404],MIC,[1]; [7],4-16 mg per L
same,MIC,[2]; [8],>500 mg per L
CCCCCCOC1C(CO)OC(OC2C(N)CC(N)C(OC3OC(CN)C(O)C(O)C3O)C2O)C(O)C1N (stereo not shown) [Compound K406],MIC,[3],>250 mg per L
same,MIC,[1]; [7],8-64 mg per L
same,MIC,[2]; [8],>500 mg per L
CCCCCCCOC1C(CO)OC(OC2C(N)CC(N)C(OC3OC(CN)C(O)C(O)C3O)C2O)C(O)C1N (stereo not shown) [Compound K407],MIC,[3],>250 mg per L
same,MIC,[1],125 mg per L
same,MIC,[2]; [8],125 mg per L
CCCCCCCCOC1[C@@H](N)[C@@H](O)C(O[C@@H]2C(N)CC(N)C(O[C@H]3OC(CN)[C@@H](O)[C@H](O)C3O)[C@@H]2O)O[C@@H]1CO (stereo partly shown) [Compound K408],MIC,[1]; [9],125 µg/mL
same,MIC,[2]; [10],31.3 µg/mL
same,MFC,[4]; ATCC64124,9.8 µg/mL
same,MIC,[4],9.8 µg/mL
same,MIC,[5],1.2 µg/mL
same,MFC,[5]; subculture on Sabouraud dextrose agar after MIC test,2.4 µg/mL
same,MIC,[6]; [11],31.2 µg/mL
same,MIC,[6]; [12],31.2 µg/mL
same,toxicity to human cervical cancer cell line HeLa,HeLa cells,not toxic
same,Viable Cells Percentage Compared to Control,"HeLa cells; HeLa, 1 μg/mL",139.37%
same,Viable Cells Percentage Compared to Control,"HeLa cells; HeLa, 10 μg/mL",156.92%
same,Viable Cells Percentage Compared to Control,"HeLa cells; HeLa, 100 μg/mL",144.82%
same,Viable Cells Percentage Compared to Control,"HeLa cells; HeLa, 1000 μg/mL",138.39%
same,effect on growth of cells (number of viable cells),"HeLa cells; HeLa, wells treated with compound",promoted growth of cells
CCCCCCCCCOC1C(CO)OC(OC2C(N)CC(N)C(OC3OC(CN)C(O)C(O)C3O)C2O)C(O)C1N (stereo not shown) [Compound K409],MIC,[3],>250 mg per L
same,MIC,[1]; [7],>250 mg per L
same,MIC,[2]; [8],62.5 mg per L
CCCCCCCCCCOC1C(CO)OC(OC2C(N)CC(N)C(OC3OC(CN)C(O)C(O)C3O)C2O)C(O)C1N (stereo not shown) [Compound K410],MIC,[3],>250 mg per L
same,MIC,[1]; [7],125 mg per L
same,MIC,[2]; [8],62.5 mg per L
CCCCCCCCCCCCOC1C(CO)OC(OC2C(N)CC(N)C(OC3OC(CN)C(O)C(O)C3O)C2O)C(O)C1N (stereo not shown) [Compound K412],MIC,[3],125-250 mg per L
same,MIC,[1]; [7],64 mg per L
same,MIC,[2]; [8],>500 mg per L
CCCCCCCCCCCCCCOC1C(CO)OC(OC2C(N)CC(N)C(OC3OC(CN)C(O)C(O)C3O)C2O)C(O)C1N (stereo not shown) [Compound K414],MIC,[3],>250 mg per L
same,MIC,[1]; [7],>250 mg per L
same,MIC,[2]; [8],>500 mg per L
CCCCCCCCOC[C@H]1OC(O[C@@H]2C(N)CC(N)C(O[C@H]3OC(CN)[C@@H](O)[C@H](O)C3O)[C@@H]2O)[C@H](O)[C@H](N)C1O (stereo partly shown) [Compound K608],toxicity to human cervical cancer cell line HeLa,HeLa cells,not toxic
same,Viable Cells Percentage Compared to Control,"HeLa cells; HeLa, 1 μg/mL",79.47%
same,Viable Cells Percentage Compared to Control,"HeLa cells; HeLa, 10 μg/mL",107.9%
same,Viable Cells Percentage Compared to Control,"HeLa cells; HeLa, 100 μg/mL",75.36%
same,Viable Cells Percentage Compared to Control,"HeLa cells; HeLa, 1000 μg/mL",86.49%
same,cell viability,"HeLa cells; HeLa, at all concentration",~80%
CCCCOCC1OC(OC2C(N)CC(N)C(OC3OC(CN)C(O)C(O)C3O)C2O)C(O)C(N)C1OCCCC (stereo not shown) [Compound K4604],MIC,[3],>250 mg per L
same,MIC,[1]; [7],>250 mg per L
same,MIC,[2]; [8],125 mg per L
CCCCCCOCC1OC(OC2C(N)CC(N)C(OC3OC(CN)C(O)C(O)C3O)C2O)C(O)C(N)C1OCCCCCC (stereo not shown) [Compound K4606],MIC,[3],>250 mg per L
same,MIC,[1]; [7],32-125 mg per L
same,MIC,[2]; [8],3.9 mg per L
CCCCCCCOCC1OC(OC2C(N)CC(N)C(OC3OC(CN)C(O)C(O)C3O)C2O)C(O)C(N)C1OCCCCCCC (stereo not shown) [Compound K4607],MIC,[3],125 mg per L
same,MIC,[1]; [7],8-125 mg per L
same,MIC,[2]; [8],15.6 mg per L
CCCCCCCCCOCC1OC(OC2C(N)CC(N)C(OC3OC(CN)C(O)C(O)C3O)C2O)C(O)C(N)C1OCCCCCCCCC (stereo not shown) [Compound K4609],MIC,[3],16 mg per L
same,MIC,[1]; [7],8 mg per L
same,MIC,[2]; [8],125 mg per L
CCCCCCCCCCOCC1OC(OC2C(N)CC(N)C(OC3OC(CN)C(O)C(O)C3O)C2O)C(O)C(N)C1OCCCCCCCCCC (stereo not shown) [Compound K4610],MIC,[3],125 mg per L
same,MIC,[1]; [7],16 mg per L
same,MIC,[2]; [8],>500 mg per L
CCCCCCCCCCCCOCC1OC(OC2C(N)CC(N)C(OC3OC(CN)C(O)C(O)C3O)C2O)C(O)C(N)C1OCCCCCCCCCCCC (stereo not shown) [Compound K4612],MIC,[3],>250 mg per L
same,MIC,[1]; [7],64 mg per L
same,MIC,[2]; [8],>500 mg per L
CCCCCCCCCCCCCCOCC1OC(OC2C(N)CC(N)C(OC3OC(CN)C(O)C(O)C3O)C2O)C(O)C(N)C1OCCCCCCCCCCCCCC (stereo not shown) [Compound K4614],MIC,[3],>250 mg per L
same,MIC,[1]; [7],>250 mg per L
same,MIC,[2]; [8],>500 mg per L
"NC[C@H]1O[C@H](O[C@H]2[C@H](O)[C@@H](O[C@H]3O[C@H](CO)[C@@H](O)[C@H](N)[C@H]3O)[C@H](N)C[C@@H]2N)[C@H](O)[C@@H](O)[C@@H]1O [Kanamycin, reference compound]",MIC,"[3]; Escherichia coli, ATCC25922, read-out: MIC",1 to 4 µg/mL
same,MIC,[1]; [9],0.5 to 1 µg/mL
same,MIC,[2]; [10],> 500 µg/mL
same,MIC,[4],> 500 µg/mL
same,MIC,[5],250 to 500 µg/mL
Clc1ccccc1C(c1ccccc1)(c1ccccc1)n1ccnc1 [chlotrimazole],MIC alone,[6]; [13],3.91 µg/mL
same,MIC alone,[6]; [14],7.81 µg/mL
same,MIC K408 with azole,[6]; [13],3.91 µg/mL
same,MIC K408 with azole,[6]; [14],1.95 µg/mL
same,MIC K4608 with azole,"[6]; MIC of K4608 when combined with the labelled azole, one experiment",1.95 µg/mL
same,MIC with K408,[6]; [13],0.24 mg/L
same,MIC with K408,[6]; [14],0.49 mg/L
same,MIC with K4608,[6]; one experiment,3.91 µg/mL
same,FIC Index (K408 with azole),[6]; [13],0.37
same,FIC Index (K408 with azole),[6]; [14],0.13
same,FIC Index (K4608 with azole),[6]; one experiment,0.19
OC(Cn1cncn1)(Cn1cncn1)c1ccc(F)cc1F [fluconazole],MIC,[6]; [11],250 µg/mL
same,MIC,[6]; [12],250 µg/mL
same,MIC,[6]; [15],> 250 µg/mL
same,MIC with K408,[6]; [13],"15.63, 15.63 mg L^−1"
same,MIC with K408,[6]; [14],"15.63, 15.63 mg L^−1"
same,MIC with K4608,[6]; one experiment,31.25 µg/mL
same,FIC Index (K408 with azole),[6]; [13],"0.31, 0.31"
same,FIC Index (K408 with azole),[6]; [14],"0.31, 0.31"
same,FIC Index (K4608 with azole),[6]; one experiment,0.25
CCC(C)n1ncn(-c2ccc(N3CCN(c4ccc(OCC5COC(Cn6cncn6)(c6ccc(Cl)cc6Cl)O5)cc4)CC3)cc2)c1=O (stereo not shown) [itraconazole],MIC,[6]; [11],250 µg/mL
same,MIC,[6]; [12],250 µg/mL
same,MIC,[6]; [15],> 250 µg/mL
same,MIC with K408,[6]; [13],"0.98, 0.98 mg L^−1"
same,MIC with K408,[6]; [14],"0.98, 0.98 mg L^−1"
same,MIC with K4608,[6]; one experiment,3.91 µg/mL
same,FIC Index (K408 with azole),[6]; [13],"0.25, 0.25"
same,FIC Index (K408 with azole),[6]; [14],"0.25, 0.25"
same,FIC Index (K4608 with azole),[6]; one experiment,<0.52
CC[C@@H]([C@H](C)O)n1ncn(-c2ccc(N3CCN(c4ccc(OC[C@@H]5CO[C@@](Cn6cncn6)(c6ccc(F)cc6F)C5)cc4)CC3)cc2)c1=O [posaconazole],MIC,[6]; [11],62.5 µg/mL
same,MIC,[6]; [12],250 µg/mL
same,MIC with K408,[6]; [13],"0.24, 0.24 mg L^−1"
same,MIC with K408,[6]; [14],"0.24, 0.24 mg L^−1"
same,MIC with K4608,[6]; one experiment,0.49 µg/mL
same,FIC Index (K408 with azole),[6]; [13],0.38
same,FIC Index (K408 with azole),[6]; [14],0.07
same,FIC Index (K4608 with azole),[6]; one experiment,<0.13
C[C@@H](c1ncncc1F)[C@](O)(Cn1cncn1)c1ccc(F)cc1F [voriconazole],MIC,[6]; [11],7.81 µg/mL
same,MIC,[6]; [12],7.81 µg/mL
same,MIC,[6]; [15],7.81 µg/mL
same,MIC with K408,[6]; [13],1.95 mg/L
same,MIC with K408,[6]; [14],0.81 mg/L
same,MIC with K4608,[6]; one experiment,0.98 µg/mL
same,FIC Index (K408 with azole),[6]; [13],"0.38, 0.38"
same,FIC Index (K408 with azole),[6]; [14],"0.38, 0.38"
same,FIC Index (K4608 with azole),[6]; one experiment,0.19

# Source: patent publication US20160060285A1, “Aminoglycosides, Methods of Synthesis, and Associated Applications” (UTAH STATE UNIVERSITY, priority 2010, published 2016)
